Data from patent US20080026073A1, “METHOD AND COMPOSITION FOR LITHIUM ADDITIVE IN TREATMENT OF GLUTAMATE TOXICITY” (priority 2006, published 2008).

Tested on: retinal ganglion cells
Assay: NMDA-induced glutamate toxicity mouse model for glaucoma: count of surviving retinal ganglion cells after oral feeding
Assay type: in vivo, mice
Settings: for survival efficacy (percent of retinal ganglion cells that survive relative to no treatment): Example 3, FIG. 3, separate mouse pools

SMILES: O=C([O-])c1cc(=O)[nH]c(=O)[nH]1.[Li+] [Lithium, lithium orotate]
- increase in the surviving ganglion cells (Example 1, FIG. 1, mice, oral ingestion, human equivalent dosage Lithium 5.8 mg lithium orotate per day, St. Johns Wort 2-4 grams per day): about 15%
- survival rate of retinal ganglion cells (Example 2, FIG. 2, mice, gavage eight days, intravitreal NMDA 150 mM 0.5 microliter after six days, Li orotate 63 μg/day, herb 32 mg per mouse per day): about 15%
- survival efficacy (percent of retinal ganglion cells that survive relative to no treatment) (1/5th the dosage, human equivalent 1.16 mg lithium orotate): approximately 13%
- survival efficacy (percent of retinal ganglion cells that survive relative to no treatment) (5 times the dosage, human equivalent 29 mg lithium orotate): approximately 8%
